Legend:
Format in all cases: functional
Conditions in all cases: Homo sapiens, read-out: ED50 (the source's name)
[1] = tested on: SK-MEL-5; test: Cytotoxic concentration required to inhibit 50% cell growth in SKMEL-5 melanoma cell lines
[2] = tested on: MLM; test: Cytotoxic concentration required to inhibit 50% cell growth in MLM melanoma cell lines
[3] = tested on: A549; test: Cytotoxic concentration required to inhibit 50% cell growth in A-549 lung carcinoma cell lines
[4] = tested on: MCF7; test: Cytotoxic concentration required to inhibit 50% cell growth in MCF-7 breast carcinoma cell lines
[5] = tested on: HT-29; test: Cytotoxic concentration required to inhibit 50% cell growth in HT-29 colon adenocarcinoma cell lines

Compound: COc1cc(/C=C\c2ccncc2)cc(OC)c1OC
- EC50 [1]: 14.4 µM
- EC50 [2]: > 25 µM
- EC50 [3]: 14.2 µM
- EC50 [4]: 17 µM
- EC50 [5]: 12.9 µM

Compound: COc1cc(/C=C\c2cccnc2)cc(OC)c1OC
- EC50 [1]: 6 µM
- EC50 [2]: > 25 µM
- EC50 [3]: 13.7 µM
- EC50 [4]: 14.7 µM
- EC50 [5]: 9.8 µM

Compound: COc1cc(/C=C/c2cccnc2)cc(OC)c1OC
- EC50 [1]: > 25 µM
- EC50 [2]: > 25 µM
- EC50 [3]: > 25 µM
- EC50 [4]: > 25 µM
- EC50 [5]: > 25 µM

Compound: COc1cc(CCc2ccc(NC(C)=O)cc2)cc(OC)c1OC
- EC50 [1]: > 25 µM
- EC50 [2]: > 25 µM
- EC50 [3]: > 25 µM
- EC50 [4]: > 25 µM
- EC50 [5]: > 25 µM

Compound: COc1cc(/C=C/c2ccc(OC)c(OC)c2OC)cc(OC)c1OC
- EC50 [1]: 10.6 µM
- EC50 [2]: 23.9 µM
- EC50 [3]: 12.5 µM
- EC50 [4]: 14.7 µM
- EC50 [5]: 10.3 µM

Compound: COc1ccccc1/C=C\c1cc(OC)c(OC)c(OC)c1
- EC50 [1]: 1.2 µM
- EC50 [2]: 8.6 µM
- EC50 [3]: 1.1 µM
- EC50 [4]: 1.3 µM
- EC50 [5]: 0.87 µM

Compound: COc1cc(CCc2ccc(O)cc2)cc(OC)c1OC
- EC50 [1]: > 25 µM
- EC50 [2]: > 25 µM
- EC50 [3]: > 25 µM
- EC50 [4]: > 25 µM
- EC50 [5]: > 25 µM

Compound: COc1cc(OC)c(/C=C/c2ccccc2)c(OC)c1
- EC50 [1]: > 25 µM
- EC50 [2]: > 25 µM
- EC50 [3]: > 25 µM
- EC50 [4]: > 25 µM
- EC50 [5]: > 25 µM

Compound: COc1cc(OC)c(OC)cc1CCc1cc(OC)c(OC)c(OC)c1
- EC50 [1]: > 25 µM
- EC50 [2]: > 25 µM
- EC50 [3]: > 25 µM
- EC50 [4]: > 25 µM
- EC50 [5]: > 25 µM

Compound: COc1cc(CCc2ccc(OC(C)=O)cc2)cc(OC)c1OC
- EC50 [1]: > 25 µM
- EC50 [2]: > 25 µM
- EC50 [3]: 19 µM
- EC50 [4]: > 25 µM
- EC50 [5]: > 25 µM

Compound: COc1ccc(C(=O)Nc2cc(OC)c(OC)c(OC)c2)cc1
- EC50 [1]: > 25 µM
- EC50 [2]: > 25 µM
- EC50 [3]: > 25 µM
- EC50 [4]: > 25 µM
- EC50 [5]: > 25 µM

Compound: COc1cc(/C=C/c2ccc([N+](=O)[O-])cc2)cc(OC)c1OC
- EC50 [1]: > 25 µM
- EC50 [2]: > 25 µM
- EC50 [3]: > 25 µM
- EC50 [4]: > 25 µM
- EC50 [5]: > 25 µM

Compound: COc1ccc(CNc2cc(OC)cc(OC)c2)cc1
- EC50 [1]: > 25 µM
- EC50 [2]: > 25 µM
- EC50 [3]: > 25 µM
- EC50 [4]: > 25 µM
- EC50 [5]: > 25 µM

Compound: COc1cc(CCc2ccncc2)cc(OC)c1OC
- EC50 [1]: > 25 µM
- EC50 [2]: > 25 µM
- EC50 [3]: > 25 µM
- EC50 [4]: > 25 µM
- EC50 [5]: > 25 µM

Compound: COc1ccccc1CCc1cc(OC)c(OC)c(OC)c1
- EC50 [1]: 20 µM
- EC50 [2]: > 25 µM
- EC50 [3]: 13.5 µM
- EC50 [4]: 11.8 µM
- EC50 [5]: > 25 µM

Compound: COc1ccc(/C=C/c2ccccc2)c(OC)c1OC
- EC50 [1]: > 25 µM
- EC50 [2]: > 25 µM
- EC50 [3]: > 25 µM
- EC50 [4]: > 25 µM
- EC50 [5]: > 25 µM

Compound: COc1cc(/C=C/c2ccccc2)cc(OC)c1OC
- EC50 [1]: > 25 µM
- EC50 [2]: > 25 µM
- EC50 [3]: > 25 µM
- EC50 [4]: > 25 µM
- EC50 [5]: > 25 µM

Compound: COc1ccc(/C=C/c2ccccc2)cc1OC
- EC50 [1]: > 25 µM
- EC50 [2]: > 25 µM
- EC50 [3]: > 25 µM
- EC50 [4]: > 25 µM
- EC50 [5]: > 25 µM

Compound: COc1cc(/C=C/c2ccc(O[Si](C)(C)C(C)(C)C)cc2)cc(OC)c1OC
- EC50 [1]: > 25 µM
- EC50 [2]: > 25 µM
- EC50 [3]: > 25 µM
- EC50 [4]: > 25 µM
- EC50 [5]: > 25 µM

Compound: COc1ccc(C(=O)Nc2cc(OC)cc(OC)c2)cc1
- EC50 [1]: > 25 µM
- EC50 [2]: > 25 µM
- EC50 [3]: > 25 µM
- EC50 [4]: > 25 µM
- EC50 [5]: > 25 µM

Compound: COc1cc(NC(=O)c2cc(OC)c(OC)c(OC)c2)cc(OC)c1OC
- EC50 [1]: > 25 µM
- EC50 [2]: > 25 µM
- EC50 [3]: > 25 µM
- EC50 [4]: > 25 µM
- EC50 [5]: > 25 µM

Compound: COc1cc(/C=C/c2cc(OC)c(OC)c(OC)c2)cc(OC)c1
- EC50 [1]: > 25 µM
- EC50 [2]: > 25 µM
- EC50 [3]: > 25 µM
- EC50 [4]: > 25 µM
- EC50 [5]: > 25 µM

Compound: COc1cc(/C=C/c2ccccn2)cc(OC)c1OC
- EC50 [1]: > 25 µM
- EC50 [2]: > 25 µM
- EC50 [3]: > 25 µM
- EC50 [4]: > 25 µM
- EC50 [5]: > 25 µM

Compound: COc1cc(/C=C/c2ccncc2)cc(OC)c1OC
- EC50 [1]: > 25 µM
- EC50 [2]: > 25 µM
- EC50 [3]: > 25 µM
- EC50 [4]: > 25 µM
- EC50 [5]: > 25 µM

Compound: COc1cc(CCc2cccnc2)cc(OC)c1OC
- EC50 [1]: > 25 µM
- EC50 [2]: > 25 µM
- EC50 [3]: 12.2 µM
- EC50 [4]: > 25 µM
- EC50 [5]: > 25 µM

Compound: COc1ccc(C(=O)Nc2cc(OC)c(OC)c(OC)c2)cc1OC
- EC50 [1]: > 25 µM
- EC50 [2]: > 25 µM
- EC50 [3]: > 25 µM
- EC50 [4]: > 25 µM
- EC50 [5]: > 25 µM

Compound: COc1ccc(/C=C/c2cc(OC)c(OC)c(OC)c2)c(Cl)c1
- EC50 [1]: > 25 µM
- EC50 [2]: > 25 µM
- EC50 [3]: > 25 µM
- EC50 [4]: > 25 µM
- EC50 [5]: > 25 µM

Reference: ChEMBL document CHEMBL1125188, “Synthesis and evaluation of stilbene and dihydrostilbene derivatives as potential anticancer agents that inhibit tubulin polymerization” (J Med Chem, 1991)
